According to ChEMBL document CHEMBL4507274 (2021):

What was measured:
[1] = biological target: MAP kinase-interacting serine/threonine-protein kinase 2 (Homo sapiens) (UniProt Q9HBH9); conditions: Compound concentration 100.0 nM
[2] = biological target: Testis-specific serine/threonine-protein kinase 1 (Homo sapiens) (UniProt Q9BXA7); conditions: Compound concentration 100.0 nM
[3] = biological target: Serine/threonine-protein kinase STK11 (Homo sapiens) (UniProt Q15831); conditions: Compound concentration 100.0 nM
[4] = biological target: Eukaryotic translation initiation factor 2-alpha kinase 1 (Homo sapiens) (UniProt Q9BQI3); conditions: Compound concentration 100.0 nM
[5] = biological target: Hormonally up-regulated neu tumor-associated kinase (Homo sapiens) (UniProt P57058); conditions: Compound concentration 100.0 nM
[6] = biological target: Mitogen-activated protein kinase kinase kinase kinase 5 (Homo sapiens) (UniProt Q9Y4K4); conditions: Compound concentration 100.0 nM
[7] = biological target: Death-associated protein kinase 3 (Homo sapiens) (UniProt O43293); conditions: Compound concentration 100.0 nM
[8] = biological target: Ribosomal protein S6 kinase alpha-1 (Homo sapiens) (UniProt Q15418); conditions: Compound concentration 100.0 nM
[9] = biological target: Ephrin type-A receptor 5 (Homo sapiens) (UniProt P54756); conditions: Compound concentration 100.0 nM
[10] = biological target: Inhibitor of nuclear factor kappa-B kinase subunit beta (Homo sapiens) (UniProt O14920); conditions: Compound concentration 100.0 nM
[11] = biological target: TGF-beta receptor type-2 (Homo sapiens) (UniProt P37173); conditions: Compound concentration 100.0 nM
[12] = biological target: Myosin-IIIa (Homo sapiens) (UniProt Q8NEV4); conditions: Compound concentration 100.0 nM
[13] = biological target: T1, Serine/threonine-protein kinase D2 (Homo sapiens) (UniProt Q9BZL6); conditions: Compound concentration 100.0 nM
T1 sequence (whole entry): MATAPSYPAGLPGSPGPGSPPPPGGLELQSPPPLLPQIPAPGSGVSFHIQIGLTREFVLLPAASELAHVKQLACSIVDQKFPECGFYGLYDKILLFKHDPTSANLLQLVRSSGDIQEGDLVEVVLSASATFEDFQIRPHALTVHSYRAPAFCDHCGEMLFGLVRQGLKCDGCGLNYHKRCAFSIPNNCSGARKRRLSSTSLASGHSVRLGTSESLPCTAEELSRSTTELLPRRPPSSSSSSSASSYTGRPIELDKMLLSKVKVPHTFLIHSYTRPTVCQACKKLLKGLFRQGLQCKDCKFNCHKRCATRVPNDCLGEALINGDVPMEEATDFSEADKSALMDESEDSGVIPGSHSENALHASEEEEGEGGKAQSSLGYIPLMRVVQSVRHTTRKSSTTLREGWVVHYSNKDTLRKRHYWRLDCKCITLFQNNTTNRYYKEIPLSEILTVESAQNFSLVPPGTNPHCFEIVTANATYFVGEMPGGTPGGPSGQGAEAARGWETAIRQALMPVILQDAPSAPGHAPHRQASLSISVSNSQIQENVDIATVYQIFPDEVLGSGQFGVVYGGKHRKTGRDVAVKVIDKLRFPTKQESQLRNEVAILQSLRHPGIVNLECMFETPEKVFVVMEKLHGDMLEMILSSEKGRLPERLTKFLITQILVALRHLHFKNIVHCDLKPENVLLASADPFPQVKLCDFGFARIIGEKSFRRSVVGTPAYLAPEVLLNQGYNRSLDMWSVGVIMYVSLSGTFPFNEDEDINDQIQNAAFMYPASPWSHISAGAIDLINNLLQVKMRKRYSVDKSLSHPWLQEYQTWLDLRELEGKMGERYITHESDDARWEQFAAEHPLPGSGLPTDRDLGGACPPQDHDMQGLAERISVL

[14] = biological target: D(4) dopamine receptor (Homo sapiens) (UniProt P21917); conditions: Compound concentration 10.0 uM
[15] = biological target: T2, Serine/threonine-protein kinase Nek2 (Homo sapiens) (UniProt P51955); conditions: Compound concentration 100.0 nM
T2 sequence (whole entry): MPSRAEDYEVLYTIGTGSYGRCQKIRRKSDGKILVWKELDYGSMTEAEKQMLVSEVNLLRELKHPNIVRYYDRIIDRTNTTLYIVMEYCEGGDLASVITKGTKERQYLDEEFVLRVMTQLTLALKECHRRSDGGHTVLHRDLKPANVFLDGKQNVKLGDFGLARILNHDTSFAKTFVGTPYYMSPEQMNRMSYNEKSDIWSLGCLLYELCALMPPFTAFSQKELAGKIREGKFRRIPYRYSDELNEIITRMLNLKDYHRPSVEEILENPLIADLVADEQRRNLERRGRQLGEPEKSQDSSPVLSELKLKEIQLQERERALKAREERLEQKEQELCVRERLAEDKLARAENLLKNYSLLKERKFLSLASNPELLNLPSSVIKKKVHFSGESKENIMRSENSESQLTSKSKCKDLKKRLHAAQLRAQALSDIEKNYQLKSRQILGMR

[16] = biological target: Delta-type opioid receptor (Homo sapiens) (UniProt P41143); conditions: Compound concentration 10.0 uM
[17] = biological target: Calcium/calmodulin-dependent protein kinase type II subunit delta (Homo sapiens) (UniProt Q13557); conditions: Compound concentration 100.0 nM
[18] = biological target: Serine/threonine-protein kinase WNK2 (Homo sapiens) (UniProt Q9Y3S1); conditions: Compound concentration 100.0 nM
[19] = tested on: eIF-2-alpha kinase GCN2 (Homo sapiens), Q9P2K8 [S808G]; conditions: Compound concentration 100.0 nM
[20] = biological target: Cyclin-dependent kinase-like 5 (Homo sapiens) (UniProt O76039); conditions: Compound concentration 100.0 nM
[21] = biological target: Tyrosine-protein kinase Lyn (Homo sapiens) (UniProt P07948); conditions: Compound concentration 100.0 nM
[22] = biological target: Receptor-interacting serine/threonine-protein kinase 2 (Homo sapiens) (UniProt O43353); conditions: Compound concentration 100.0 nM
[23] = biological target: Tyrosine-protein kinase JAK1 (Homo sapiens) (UniProt P23458); conditions: Compound concentration 100.0 nM
[24] = biological target: Serine/threonine-protein kinase 36 (Homo sapiens) (UniProt Q9NRP7); conditions: Compound concentration 100.0 nM
[25] = biological target: Alpha-1B adrenergic receptor (Homo sapiens) (UniProt P35368); conditions: Compound concentration 10.0 uM
[26] = biological target: Dual serine/threonine and tyrosine protein kinase (Homo sapiens) (UniProt Q6XUX3); conditions: Compound concentration 100.0 nM
[27] = biological target: Serine/threonine-protein kinase 32A (Homo sapiens) (UniProt Q8WU08); conditions: Compound concentration 100.0 nM
Sequence of Serine/threonine-protein kinase 32A (Homo sapiens) (Q8WU08 whole entry): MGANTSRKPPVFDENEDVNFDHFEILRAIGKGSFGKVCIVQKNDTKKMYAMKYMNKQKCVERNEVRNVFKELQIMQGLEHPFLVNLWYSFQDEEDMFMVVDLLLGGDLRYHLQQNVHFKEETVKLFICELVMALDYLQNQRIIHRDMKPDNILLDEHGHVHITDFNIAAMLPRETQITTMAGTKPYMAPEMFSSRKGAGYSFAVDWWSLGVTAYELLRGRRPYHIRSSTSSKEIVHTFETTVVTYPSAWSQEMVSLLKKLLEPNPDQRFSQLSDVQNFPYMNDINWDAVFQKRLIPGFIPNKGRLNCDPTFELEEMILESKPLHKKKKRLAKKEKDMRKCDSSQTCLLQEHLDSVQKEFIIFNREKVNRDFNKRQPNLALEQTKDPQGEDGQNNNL

Sequence of eIF-2-alpha kinase GCN2 (Homo sapiens), Q9P2K8 [S808G] (Q9P2K8 whole entry S808G): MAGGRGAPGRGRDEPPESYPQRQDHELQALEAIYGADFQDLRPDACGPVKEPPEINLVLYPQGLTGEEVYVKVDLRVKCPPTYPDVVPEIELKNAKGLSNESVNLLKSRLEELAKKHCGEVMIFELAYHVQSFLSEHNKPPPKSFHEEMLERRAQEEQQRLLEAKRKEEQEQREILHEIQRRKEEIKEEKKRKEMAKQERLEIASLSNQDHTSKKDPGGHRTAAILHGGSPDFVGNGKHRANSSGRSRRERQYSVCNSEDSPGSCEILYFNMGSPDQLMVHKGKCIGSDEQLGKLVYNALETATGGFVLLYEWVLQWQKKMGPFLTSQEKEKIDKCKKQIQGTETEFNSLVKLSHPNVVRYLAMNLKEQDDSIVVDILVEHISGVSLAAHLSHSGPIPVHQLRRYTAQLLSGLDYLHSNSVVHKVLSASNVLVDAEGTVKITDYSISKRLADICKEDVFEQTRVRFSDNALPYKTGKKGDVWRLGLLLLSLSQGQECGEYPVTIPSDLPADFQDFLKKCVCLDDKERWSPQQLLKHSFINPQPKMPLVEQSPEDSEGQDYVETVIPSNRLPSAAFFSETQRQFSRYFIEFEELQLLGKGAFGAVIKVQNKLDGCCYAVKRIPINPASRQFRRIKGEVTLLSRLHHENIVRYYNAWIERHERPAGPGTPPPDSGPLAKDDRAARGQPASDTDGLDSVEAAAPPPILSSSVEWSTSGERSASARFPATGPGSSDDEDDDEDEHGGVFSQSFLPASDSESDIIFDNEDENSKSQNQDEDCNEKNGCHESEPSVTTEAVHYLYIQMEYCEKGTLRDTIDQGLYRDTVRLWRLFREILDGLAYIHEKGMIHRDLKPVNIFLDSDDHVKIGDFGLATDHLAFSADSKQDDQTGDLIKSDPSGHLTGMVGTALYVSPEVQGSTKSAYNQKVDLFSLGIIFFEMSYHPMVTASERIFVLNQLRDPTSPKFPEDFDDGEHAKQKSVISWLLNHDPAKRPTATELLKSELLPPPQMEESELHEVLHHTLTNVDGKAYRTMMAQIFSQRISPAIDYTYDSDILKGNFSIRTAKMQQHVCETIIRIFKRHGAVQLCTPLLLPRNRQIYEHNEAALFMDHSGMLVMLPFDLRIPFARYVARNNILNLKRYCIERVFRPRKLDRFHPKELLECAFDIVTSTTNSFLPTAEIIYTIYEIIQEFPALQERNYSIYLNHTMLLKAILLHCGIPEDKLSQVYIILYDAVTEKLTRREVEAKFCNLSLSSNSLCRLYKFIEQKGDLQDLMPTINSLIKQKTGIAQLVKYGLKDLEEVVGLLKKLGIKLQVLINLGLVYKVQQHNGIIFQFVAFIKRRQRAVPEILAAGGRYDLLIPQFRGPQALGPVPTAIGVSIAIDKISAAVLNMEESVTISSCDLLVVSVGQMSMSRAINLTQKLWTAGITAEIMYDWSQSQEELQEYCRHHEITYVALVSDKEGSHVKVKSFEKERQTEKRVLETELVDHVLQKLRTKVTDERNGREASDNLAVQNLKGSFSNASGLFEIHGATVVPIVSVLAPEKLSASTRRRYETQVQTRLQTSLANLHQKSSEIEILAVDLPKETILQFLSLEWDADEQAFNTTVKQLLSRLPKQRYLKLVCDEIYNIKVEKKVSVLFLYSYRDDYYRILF
Sequence of D(4) dopamine receptor (Homo sapiens) (P21917 whole entry): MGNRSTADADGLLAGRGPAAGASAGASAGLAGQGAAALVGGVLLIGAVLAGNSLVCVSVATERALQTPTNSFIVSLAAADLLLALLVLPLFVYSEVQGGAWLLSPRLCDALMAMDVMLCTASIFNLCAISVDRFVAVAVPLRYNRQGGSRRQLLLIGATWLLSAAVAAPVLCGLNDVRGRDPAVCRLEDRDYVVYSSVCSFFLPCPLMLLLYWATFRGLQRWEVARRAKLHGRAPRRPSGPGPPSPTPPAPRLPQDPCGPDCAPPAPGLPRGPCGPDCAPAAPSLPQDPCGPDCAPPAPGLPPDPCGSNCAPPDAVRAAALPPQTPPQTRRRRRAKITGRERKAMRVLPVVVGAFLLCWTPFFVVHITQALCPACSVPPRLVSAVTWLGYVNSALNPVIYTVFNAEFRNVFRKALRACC
Sequence of Mitogen-activated protein kinase kinase kinase kinase 5 (Homo sapiens) (Q9Y4K4 whole entry, looked up): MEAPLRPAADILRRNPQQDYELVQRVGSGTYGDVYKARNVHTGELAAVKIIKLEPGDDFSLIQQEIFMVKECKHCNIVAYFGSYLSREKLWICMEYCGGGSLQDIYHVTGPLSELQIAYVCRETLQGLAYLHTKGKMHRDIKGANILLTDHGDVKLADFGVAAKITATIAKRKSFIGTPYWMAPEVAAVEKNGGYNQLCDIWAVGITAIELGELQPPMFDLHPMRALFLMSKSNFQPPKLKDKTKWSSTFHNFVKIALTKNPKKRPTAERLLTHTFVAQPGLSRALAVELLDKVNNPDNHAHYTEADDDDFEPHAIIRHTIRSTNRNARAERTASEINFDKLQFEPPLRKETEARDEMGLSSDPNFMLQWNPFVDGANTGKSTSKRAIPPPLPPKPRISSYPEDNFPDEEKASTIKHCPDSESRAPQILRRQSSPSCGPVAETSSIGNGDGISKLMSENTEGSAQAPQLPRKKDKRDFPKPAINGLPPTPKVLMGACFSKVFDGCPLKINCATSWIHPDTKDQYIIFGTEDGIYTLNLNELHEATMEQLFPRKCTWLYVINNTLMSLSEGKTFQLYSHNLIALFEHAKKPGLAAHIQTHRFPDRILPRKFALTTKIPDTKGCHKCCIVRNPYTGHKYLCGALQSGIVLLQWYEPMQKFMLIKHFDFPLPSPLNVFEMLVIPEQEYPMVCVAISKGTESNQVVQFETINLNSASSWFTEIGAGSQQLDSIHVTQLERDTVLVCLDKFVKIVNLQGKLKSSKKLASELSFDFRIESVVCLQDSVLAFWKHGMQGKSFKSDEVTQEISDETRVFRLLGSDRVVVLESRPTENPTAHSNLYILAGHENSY
Sequence of Delta-type opioid receptor (Homo sapiens) (P41143 whole entry): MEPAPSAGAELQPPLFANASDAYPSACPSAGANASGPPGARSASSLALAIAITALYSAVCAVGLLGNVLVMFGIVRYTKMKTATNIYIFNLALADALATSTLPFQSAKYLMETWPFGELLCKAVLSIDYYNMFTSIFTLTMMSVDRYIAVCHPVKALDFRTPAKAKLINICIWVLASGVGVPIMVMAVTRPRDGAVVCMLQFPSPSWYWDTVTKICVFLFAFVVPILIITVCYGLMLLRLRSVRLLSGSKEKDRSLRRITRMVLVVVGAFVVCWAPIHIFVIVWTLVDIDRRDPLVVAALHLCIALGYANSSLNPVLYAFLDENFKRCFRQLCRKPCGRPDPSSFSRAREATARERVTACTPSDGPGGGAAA
Sequence of Cyclin-dependent kinase-like 5 (Homo sapiens) (O76039 whole entry): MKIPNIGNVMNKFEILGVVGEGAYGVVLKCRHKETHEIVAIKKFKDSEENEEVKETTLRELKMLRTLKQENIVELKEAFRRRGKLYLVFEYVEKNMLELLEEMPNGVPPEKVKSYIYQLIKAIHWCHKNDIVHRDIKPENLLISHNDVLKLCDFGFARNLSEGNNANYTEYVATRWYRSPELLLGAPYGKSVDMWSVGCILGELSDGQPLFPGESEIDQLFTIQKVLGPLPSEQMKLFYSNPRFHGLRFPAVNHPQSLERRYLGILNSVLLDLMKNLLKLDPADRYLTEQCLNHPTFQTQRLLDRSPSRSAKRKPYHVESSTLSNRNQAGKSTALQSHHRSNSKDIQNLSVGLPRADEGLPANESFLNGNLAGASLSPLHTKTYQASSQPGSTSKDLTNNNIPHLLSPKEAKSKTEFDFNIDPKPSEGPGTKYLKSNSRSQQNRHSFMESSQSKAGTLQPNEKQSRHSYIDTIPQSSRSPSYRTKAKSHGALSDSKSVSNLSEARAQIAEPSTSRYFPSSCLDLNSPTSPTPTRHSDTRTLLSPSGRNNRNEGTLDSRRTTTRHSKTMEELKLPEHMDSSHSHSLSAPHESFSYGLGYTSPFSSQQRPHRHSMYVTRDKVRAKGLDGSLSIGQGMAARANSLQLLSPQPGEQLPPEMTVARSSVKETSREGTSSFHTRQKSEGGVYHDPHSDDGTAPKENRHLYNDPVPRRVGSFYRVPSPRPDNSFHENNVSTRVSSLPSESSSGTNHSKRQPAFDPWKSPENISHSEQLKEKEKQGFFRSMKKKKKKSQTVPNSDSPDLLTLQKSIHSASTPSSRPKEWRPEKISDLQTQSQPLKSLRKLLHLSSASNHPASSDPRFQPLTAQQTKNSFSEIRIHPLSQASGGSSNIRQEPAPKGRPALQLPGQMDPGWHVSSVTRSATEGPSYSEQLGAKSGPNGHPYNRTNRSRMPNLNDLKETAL
Sequence of Serine/threonine-protein kinase STK11 (Homo sapiens) (Q15831 whole entry): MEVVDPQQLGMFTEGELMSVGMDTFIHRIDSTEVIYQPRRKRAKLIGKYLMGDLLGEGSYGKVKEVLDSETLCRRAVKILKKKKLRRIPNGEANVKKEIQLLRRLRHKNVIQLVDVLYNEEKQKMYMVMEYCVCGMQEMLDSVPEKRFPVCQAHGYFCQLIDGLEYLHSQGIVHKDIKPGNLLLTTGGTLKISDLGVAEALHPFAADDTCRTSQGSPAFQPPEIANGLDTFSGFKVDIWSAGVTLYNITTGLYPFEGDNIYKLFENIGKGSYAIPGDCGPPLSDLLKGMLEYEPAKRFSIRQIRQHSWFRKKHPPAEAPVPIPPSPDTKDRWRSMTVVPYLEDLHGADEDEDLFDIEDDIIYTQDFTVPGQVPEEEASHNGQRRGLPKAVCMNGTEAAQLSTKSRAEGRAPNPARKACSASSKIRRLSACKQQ

Cn1cc(Cl)c2c(Oc3c(F)cc(Nc4cc(Cl)nc(N)n4)cc3F)ccnc21 [BAY-4900]
inactive: residual activity [1] 90% | residual activity [2] 100% | residual activity [3] 100% | residual activity [4] 100% | residual activity [5] 100% | residual activity [6] 91% | residual activity [7] 100% | residual activity [8] 86% | residual activity [9] 100% | residual activity [10] 87% | residual activity [11] 90% | residual activity [12] 100% | residual activity [13] 91% | inhibition [14] 11.3% | residual activity [15] 100% | inhibition [16] -5.39% | residual activity [17] 95% | residual activity [18] 88% | residual activity [19] 100% | residual activity [20] 78% | residual activity [21] 99% | residual activity [22] 83% | residual activity [23] 89% | residual activity [24] 93% | inhibition [25] 18.3% | residual activity [26] 98% | residual activity [27] 89%

Cc1c[nH]c2nccc(Oc3c(F)cc(Nc4cc(Cl)nc(N)n4)cc3F)c12 [BAY-549]
inactive: residual activity [1] 90% | residual activity [2] 95% | residual activity [3] 100% | residual activity [4] 77% | residual activity [5] 100% | residual activity [6] 93% | residual activity [7] 97% | residual activity [8] 91% | residual activity [9] 92% | residual activity [10] 69% | residual activity [11] 100% | residual activity [12] 95% | residual activity [13] 94% | inhibition [14] 11.4% | residual activity [15] 97% | inhibition [16] 7.96% | residual activity [17] 90% | residual activity [18] 96% | residual activity [19] 100% | residual activity [20] 73% | residual activity [21] 81% | residual activity [22] 92% | residual activity [23] 80% | residual activity [24] 85% | inhibition [25] 17% | residual activity [26] 67% | residual activity [27] 86%
